Experimental data as given in patent publication US20100240653A1, “BIPHENYL SULFONYL AND PHENYL-HETEROARYL SULFONYL MODULATORS OF THE HISTAMINE H3-RECEPTOR USEFUL FOR THE TREATMENT OF DISORDERS RELATED THERETO” (priority 2006, published 2010).

Tests used:
Histamine H3-receptor = Histamine H3-receptor (Rattus norvegicus, UniProt Q9QYN8); experiment: [3H]N-alpha-methyl-histamine competitive histamine H3-receptor binding assay (rat brain cortex membranes); settings: whole rat brain cortex membranes, [3H]-N-α-methyl-histamine 1 nM
Protocol: The histamine receptor binding assay was conducted using standard laboratory procedures as described below. A crude membrane fraction was prepared from whole rat brain cortex using a polytron to homogenize the tissue followed by differential centrifugation in a HEPES-based buffer containing protease inhibitors. Membranes where frozen at −80° C. until needed. Frozen membranes were thawed and resuspended in ice-cold assay buffer consisting of 50 mM TRIS containing 5 mM EDTA (pH=7.4). 50 micrograms (μg) of membrane protein was added to each well of a 96-well assay plate along with test compound and [^3H]-N-α-methyl-histamine (1 nanomolar (nM) final assay concentration). Imetit was used as an assay positive control at varying concentrations. The plate was incubated for 30 min at room temperature. The assay was terminated by rapid filtration through a 96-well glass fiber filtration plate (GF/C) using a cell harvester (Perkin-Elmer). Captured membranes were washed three times with cold assay buffer and plates were dried at 50° C. 35 microliters (μL) of scintillation cocktail was added to each well and membrane-bound radioactivity was recorded using a TopCount 96-well plate scintillation counter (Perkin-Elmer).

male Sprague Dawley rats = experiment: Blockade of RAMH-induced drinking assay; format: in vivo; settings: rat, 0.3 mg/kg PO, RAMH 3 mg/kg SC, drinking 20 min
Protocol: When administered to rodents, H3 agonists such as R-α-methyl-histamine (RAMH) induce a drinking response that is sensitive to reversal with an H3 antagonist. Blockade of RAMH-induced drinking can therefore be utilized as an in vivo assay for functional H3 antagonist activity. In this assay, male Sprague Dawley rats (250-350 g) were housed three per cage and maintained under a reverse 12 h light cycle (lights off at 1130 h). At 1030 h on the day of test, rats were individually housed in new cages and food was removed. 120 min later, rats were administered test article (vehicle or H3 antagonist, 0.3 mg/kg PO). 30 min later, water was removed, and RAMH (vehicle or RAMH 3 mg/kg salt SC) was administered. 10 min after administration of RAMH, weighed water bottles were placed in the cages, and drinking was allowed for 20 min. Water consumption was determined for each animal by weighing each bottle to the nearest 0.1 g. Data is expressed as percentage reduction in water intake according to the following formula:
[1−[(ANTAGONIST/RAMH)−(VEHICLE/RAMH)/(VEHICLE/RAMH)−(VEHICLENEHICLE)]]*100

[1] = target: T1, human histamine H3-receptor (Homo sapiens, UniProt Q9Y5N1); experiment: Human histamine H3-receptor binding assay, MDS Pharma Services (Taiwan), Catalogue No. 239810
T1 construct: purchased MDS Pharma Services (Taiwan) 239810
Protocol: Compounds of the invention were tested for their ability to bind to the human histamine H3-receptor using the MDS Pharma Services (Taiwan) assay, Catalogue No. 239810.

Male Sprague-Dawley rats = experiment: Rat polysomnography (EEG/EMG wakefulness); format: in vivo; settings: over 1 h after oral administration at 0.6 mg/kg
Protocol: Animals: Male Sprague-Dawley rats (225-350 g) (Harlan, San Diego, Calif.) were singly housed and maintained in a humidity—(30-70%) and temperature—(20-22° C.) controlled facility on a 12 h:12 h light/dark cycle (lights on at 6:30 A.M.) with free access to food (Harlan-Teklad Western Res., Orange, Calif., Rodent Diet 8604) and water. Rats were allowed at least three days of habituation to the animal facility before surgery.
Rats were anaesthetized with a ketamine/xylazine mixture, and surgically prepared for
EEG and EMG recording. After 2-3 weeks of post-surgical recovery, rats were habituated to polypropylene test cages for at least three days. On test days, the rats were placed in the test chambers and habituated overnight. At 10 am the next day, the rats were administered the test compound, connected to the recording apparatus, and placed back into the test chambers for 3 h.
EEG and EMG data were digitized and stored in 10 s epochs over the three hour test period. […] […] Percent increase in wakefulness was then derived for each rat.

Histamine H3-receptor, sequence (Q9QYN8 1-397 isoform Q9QYN8-3): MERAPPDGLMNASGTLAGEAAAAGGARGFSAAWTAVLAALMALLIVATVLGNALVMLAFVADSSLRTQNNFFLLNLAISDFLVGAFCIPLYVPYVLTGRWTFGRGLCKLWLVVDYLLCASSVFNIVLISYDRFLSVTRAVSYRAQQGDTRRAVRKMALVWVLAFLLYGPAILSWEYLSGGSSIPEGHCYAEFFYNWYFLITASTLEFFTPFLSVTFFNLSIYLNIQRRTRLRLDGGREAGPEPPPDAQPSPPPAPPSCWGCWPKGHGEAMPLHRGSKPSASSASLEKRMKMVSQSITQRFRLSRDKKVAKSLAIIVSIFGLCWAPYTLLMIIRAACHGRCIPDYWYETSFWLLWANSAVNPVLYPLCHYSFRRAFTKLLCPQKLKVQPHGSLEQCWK
T1 sequence (Q9Y5N1 whole entry): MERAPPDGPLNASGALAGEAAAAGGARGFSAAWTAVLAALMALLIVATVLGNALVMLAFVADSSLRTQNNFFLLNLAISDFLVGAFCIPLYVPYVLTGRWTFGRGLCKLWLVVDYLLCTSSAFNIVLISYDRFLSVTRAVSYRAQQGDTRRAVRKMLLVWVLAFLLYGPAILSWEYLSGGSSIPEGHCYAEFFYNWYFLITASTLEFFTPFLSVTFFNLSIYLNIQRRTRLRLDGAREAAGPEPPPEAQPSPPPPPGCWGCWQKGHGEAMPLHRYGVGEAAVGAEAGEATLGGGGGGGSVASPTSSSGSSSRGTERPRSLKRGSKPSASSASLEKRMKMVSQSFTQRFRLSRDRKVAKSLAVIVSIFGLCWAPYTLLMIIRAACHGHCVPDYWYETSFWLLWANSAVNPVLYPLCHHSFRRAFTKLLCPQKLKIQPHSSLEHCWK

Compound	Ki (Histamine H3-receptor)	% inhibition of RAMH-induced drinking (male Sprague Dawley rats)	other results
CCS(=O)(=O)c1ccc(-c2ccc(CCN3CCC[C@H]3C)cc2)cc1 [Cmpd 2, (R)-1-[2-(4′-Ethanesulfonyl-biphenyl-4-yl)-ethyl]-2-methyl-pyrrolidine]		82.6 ± 12.9%	
CCCS(=O)(=O)c1ccc(-c2ccc(CCN3CCC[C@H]3C)cc2)cc1 [Cmpd 5, (R)-2-Methyl-1-{2-[4′-(propane-1-sulfonyl)-biphenyl-4-yl]-ethyl}-pyrrolidine]			Ki [1]: 3.7 nM
C[C@@H]1CCCN1CCc1ccc(-c2ccc(S(=O)(=O)Cc3ccccc3)cc2)cc1 [Cmpd 6, (R)-2-Methyl-1-[2-(4′-phenylmethanesulfonyl-biphenyl-4-yl)-ethyl]-pyrrolidine]	1.1 nM		
C[C@@H]1CCCN1CCc1ccc(-c2ccc3c(c2)C(=O)CCS3(=O)=O)cc1 [Cmpd 7, 6-{4-[2-((R)-2-Methyl-pyrrolidin-1-yl)-ethyl]-phenyl}-1,1-dioxo-1λ^6-thiochroman-4-one]		92.5 ± 15.8%	Ki [1]: 2.9 nM
C[C@@H]1CCCN1CCc1ccc(-c2ccc(S(=O)(=O)CCO)cc2)cc1 [Cmpd 10, 2-{4′-[2-((R)-2-Methyl-pyrrolidin-1-yl)-ethyl]-biphenyl-4-sulfonyl}-ethanol]			% Increase in wakefulness +/− s.e. (Male Sprague-Dawley rats): 46 ± 15%
C[C@@H]1CCCN1CCc1ccc(-c2ccc(S(=O)(=O)CCCO)cc2)cc1 [Cmpd 15, 3-{4′-(2-((R)-2-Methyl-pyrrolidin-1-yl)-ethyl]-biphenyl-4-sulfonyl}-propan-1-ol]		58.8 ± 16.1%	
C[C@@H]1CCCN1CCc1ccc(-c2cccc(S(=O)(=O)CCO)c2)cc1 [Cmpd 17, 2-{4′-[2-((R)-2-Methyl-pyrrolidin-1-yl)-ethyl]-biphenyl-3-sulfonyl}-ethanol]	16 nM		

Second part, led by results:

Ki (Histamine H3-receptor)	Compound	% inhibition of RAMH-induced drinking (male Sprague Dawley rats)	other results
2.4 nM	C[C@@H]1CCCN1CCc1ccc(-c2ccc(S(C)(=O)=O)cc2)cc1 [Cmpd 1, (R)-1-[2-(4′-Methanesulfonyl-biphenyl-4-yl)-ethyl]-2-methyl-pyrrolidine]		
3 nM	COCCS(=O)(=O)c1ccc(-c2ccc(CCN3CCC[C@H]3C)cc2)cc1 [Cmpd 3, (R)-1-{2-[4′-(2-Methoxy-ethanesulfonyl)-biphenyl-4-yl]-ethyl}-2-methyl-pyrrolidine]		
1.5 nM	COCCCS(=O)(=O)c1ccc(-c2ccc(CCN3CCC[C@H]3C)cc2)cc1 [Cmpd 8, (R)-1-{2-[4′-(3-Methoxy-propane-1-sulfonyl)-biphenyl-4-yl]-ethyl}-2-methyl-pyrrolidine]		
